Experimental data reported in publication PMC4608773, “Elisidepsin Interacts Directly with Glycosylceramides in the Plasma Membrane of Tumor Cells to Induce Necrotic Cell Death” (PLoS ONE, 2015).
Where two headings read alike, the source gives them in different places.

Legend:
[1] = tested on: HCT-116 cells; experiment: cells
Method: (§1) Cells were seeded in 96-well microtiter plates and maintained at 37°C and 5% CO2 in drug-free medium before treatment with vehicle alone or elisidepsin at the concentrations and times indicated in the text. For cell survival quantification, a colorimetric assay using SRB was used. Briefly, after treatment, cells were washed twice with phosphate buffered saline (PBS), fixed for 25 min in 1% glutaraldehyde solution, rinsed twice with PBS, stained in 0.4% SRB-1% acetic acid solution for 30 min, rinsed several times with 1% acetic acid solution, and air-dried. […] Results are expressed as percentage of control cell survival and represent the mean of at least three independent experiments. IC50, half-maximal inhibitory concentration, was used as a reference value.

[2] = tested on: HCT-116-Irv cells (elisidepsin-resistant subline); experiment: cells; details: for IC50: read-out: HCT-116-Irv (IC50), cell growth half-maximal inhibitory concentration; for RR (resistance ratio): fold change between IC50 values from HCT-116-Irv and HCT-116: negative values where HCT-116-Irv is the more sensitive line
Method: B16 and GM95 cells were maintained in DMEM with the same supplements and conditions.
as §1

[3] = tested on: B16 cells; experiment: Cell viability assay (SRB colorimetric); assay type: cell-based, mouse
Method: as §1

[4] = tested on: GM95 cells (UGCG-deficient B16 mutant); experiment: Cell viability assay (SRB colorimetric); assay type: cell-based, mouse; details: for IC50: read-out: GM95 (IC50), cell growth half-maximal inhibitory concentration; for RR: fold change between IC50 values from GM95 and B16: negative values where GM95 is the more sensitive line
Method: as §1

[5] = target: Elisidepsin; experiment: FRET or BRET; two-photon FLIM-FRET, phasor analysis, on live HCT-116 cells in Tyrode-glucose buffer; mix of donor Irv-OG488 200 nM, acceptor Irv-A555 800 nM and elisidepsin 3 μM added to the cells; assemblies seen in the plasma membrane
[6] = Homo sapiens, HCT-116, read-out: HCT-116 (IC50), cell growth half-maximal inhibitory concentration
[7] = SRB assay, mean of three different experiments, read-out: B16 (IC50), cell growth half-maximal inhibitory concentration
[8] = SRB assay, mean of three different experiments
[9] = read-out: HCT-116 (IC50), cell growth half-maximal inhibitory concentration, SRB assay, 96-well, mean of three different experiments, exposure time not given
[10] = SRB assay, 96-well, mean of three different experiments, exposure time not given
[11] = Mus musculus, B16, read-out: B16 (IC50), cell growth half-maximal inhibitory concentration

**Q.** `O=c1[nH]cc(F)c(=O)[nH]1` [5-FU, 5-fluorouracil] was tested. Which IC50 [1, 6] did it give?
**A.** The IC50 was 4000 nM.

**Q.** What about the IC50 ([2]; Homo sapiens) of the same compound?
**A.** The IC50 was 11000 nM.

**Q.** And the “RR (resistance ratio): fold change between IC50 values from HCT-116-Irv and HCT-116” value [2]?
**A.** Its value is 2.8.

**Q.** Which IC50 [1, 6] does the source give for `C[C@@H]1[C@H](O)[C@@H](C)/C=C/C=C/C=C/C=C/C=C/C=C/C=C/[C@H](O[C@@H]2O[C@H](C)[C@@H](O)[C@H](N)[C@@H]2O)C[C@@H]2O[C@](O)(C[C@@H](O)C[C@@H](O)[C@H](O)CC[C@@H](O)C[C@@H](O)CC(=O)O[C@H]1C)C[C@H](O)[C@H]2C(=O)O` [Amphotericin B] here?
**A.** The IC50 was 5200 nM.

**Q.** What about the IC50 ([2]; Homo sapiens) of the same compound?
**A.** Its IC50 is 6100 nM.

**Q.** What about the “RR (resistance ratio): fold change between IC50 values from HCT-116-Irv and HCT-116” value [2] of the same compound?
**A.** The value was 1.2.

**Q.** With `N.N.[Cl][Pt][Cl]` [Cisplatin] as the compound, how does the IC50 [3, 7] read?
**A.** Its IC50 is 18000 nM.

**Q.** And the IC50 [4, 8]?
**A.** Its IC50 is 9400 nM.

**Q.** And the “RR: fold change between IC50 values from GM95 and B16” value (“RR: fold change between IC50 values” below) [4]?
**A.** The value was -2.0.

**Q.** What about the IC50 [1, 9] of the same compound?
**A.** The IC50 was 9800 nM.

**Q.** And the “RR (resistance ratio): fold change between IC50 values from HCT-116-Irv and HCT-116” value [2]?
**A.** The value was -2.7.

**Q.** What about the IC50 [2, 10] of the same compound?
**A.** Its IC50 is 3600 nM.

**Q.** How did the IC50 [1, 6] turn out when `COc1cc2c(c(OC)c1OC)-c1ccc(OC)c(=O)cc1[C@@H](NC(C)=O)CC2` [Colchicine] was run?
**A.** Its IC50 is 3.9 nM.

**Q.** What about the IC50 ([2]; Homo sapiens) of the same compound?
**A.** The IC50 was 2.8 nM.

**Q.** `CC(=O)O[C@@]12CO[C@@H]1C[C@H](O)[C@@]1(C)C(=O)[C@H](O)C3=C(C)[C@@H](OC(=O)[C@H](O)[C@@H](NC(=O)OC(C)(C)C)c4ccccc4)C[C@@](O)([C@@H](OC(=O)c4ccccc4)[C@H]21)C3(C)C` [Docetaxel] was tested. Which IC50 [1, 6] did it give?
**A.** The IC50 was 2.9 nM.

**Q.** What about the IC50 ([2]; Homo sapiens) of the same compound?
**A.** The IC50 was 1.8 nM.

**Q.** What does the source list for `COc1cccc2c1C(=O)c1c(O)c3c(c(O)c1C2=O)C[C@@](O)(C(=O)CO)C[C@@H]3O[C@H]1C[C@H](N)[C@H](O)[C@H](C)O1` [Doxorubicin]?
**A.** IC50 [3, 11]: 180 nM; IC50 ([4]; Mus musculus): 94 nM; RR: fold change between IC50 values from GM95 and B16 [4]: -1.9; IC50 [1, 6]: 140 nM; IC50 ([2]; Homo sapiens): 99 nM

**Q.** How did the IC50 [1, 6] turn out when `CCCCCCCCCCCCCCCCCCOCC(COP(=O)([O-])OCC[N+](C)(C)C)OC` (stereo not shown) [Edelfosine] was run?
**A.** The IC50 was 29000 nM.

**Q.** And the IC50 ([2]; Homo sapiens)?
**A.** The IC50 was 29000 nM.

**Q.** What about the “RR (resistance ratio): fold change between IC50 values from HCT-116-Irv and HCT-116” value [2] of the same compound?
**A.** Its value is 1.0.

**Q.** Which results are given for `C/C(=C\c1csc(C)n1)[C@@H]1C[C@@H]2O[C@]2(C)CCC[C@H](C)[C@H](O)[C@@H](C)C(=O)C(C)(C)[C@@H](O)CC(=O)O1` [Epothilone B]?
**A.** IC50 [1, 6]: 2.2 nM; IC50 ([2]; Homo sapiens): 3.9 nM; RR (resistance ratio): fold change between IC50 values from HCT-116-Irv and HCT-116 [2]: 1.8

**Q.** For `C#Cc1cccc(Nc2ncnc3cc(OCCOC)c(OCCOC)cc23)c1` [Erlotinib], which IC50 [1, 6] is on record?
**A.** Its IC50 is 32000 nM.

**Q.** What about the IC50 ([2]; Homo sapiens) of the same compound?
**A.** The IC50 was 16000 nM.

**Q.** Which IC50 [1, 6] does the source give for `COc1cc([C@@H]2c3cc4c(cc3[C@@H](O[C@@H]3O[C@@H]5CO[C@@H](C)O[C@H]5[C@H](O)[C@H]3O)[C@H]3COC(=O)[C@H]23)OCO4)cc(OC)c1O` [Etoposide] here?
**A.** The IC50 was 1200 nM.

**Q.** What about the IC50 ([2]; Homo sapiens) of the same compound?
**A.** The IC50 was 960 nM.

**Q.** Which results are given for `Nc1ccn([C@@H]2O[C@H](CO)[C@@H](O)C2(F)F)c(=O)n1` [Gemcitabine]?
**A.** IC50 ([3]; Mus musculus, B16, SRB assay, mean of three different experiments, read-out: B16 (IC50), cell growth half-maximal inhibitory concentration): 5.6 nM; IC50 ([4]; Mus musculus, SRB assay, mean of three different experiments): 8.1 nM; RR: fold change between IC50 values from GM95 and B16 [4]: 1.4; IC50 [1, 6]: 0.63 nM; IC50 ([2]; Homo sapiens): 0.67 nM; RR (resistance ratio): fold change between IC50 values from HCT-116-Irv and HCT-116 [2]: 1.1

**Q.** Which IC50 [3, 11] does the source give for `CN(Cc1cnc2nc(N)nc(N)c2n1)c1ccc(C(=O)N[C@@H](CCC(=O)O)C(=O)O)cc1` [Methotrexate] here?
**A.** The IC50 was 500 nM.

**Q.** What about the IC50 ([4]; Mus musculus) of the same compound?
**A.** Its IC50 is 370 nM.

**Q.** What about the “RR: fold change between IC50 values” value [4] of the same compound?
**A.** The value was -1.4.

**Q.** What about the IC50 [1, 6] of the same compound?
**A.** Its IC50 is 37 nM.

**Q.** What about the IC50 ([2]; Homo sapiens) of the same compound?
**A.** Its IC50 is 77 nM.

**Q.** What about the “RR (resistance ratio): fold change between IC50 values from HCT-116-Irv and HCT-116” value [2] of the same compound?
**A.** Its value is 2.1.

**Q.** For `CO[C@@]12[C@H](COC(N)=O)C3=C(C(=O)C(C)=C(N)C3=O)N1C[C@@H]1N[C@@H]12` [Mitomycin C], which IC50 [3, 11] is on record?
**A.** The IC50 was 5700 nM.

**Q.** And the IC50 ([4]; Mus musculus)?
**A.** Its IC50 is 2500 nM.

**Q.** What about the “RR: fold change between IC50 values” value [4] of the same compound?
**A.** Its value is -2.3.

**Q.** What about the IC50 [1, 6] of the same compound?
**A.** Its IC50 is 330 nM.

**Q.** And the IC50 ([2]; Homo sapiens)?
**A.** Its IC50 is 300 nM.

**Q.** What does the source list for `CC(=O)O[C@H]1C(=O)[C@@]2(C)[C@H]([C@H](OC(=O)c3ccccc3)[C@]3(O)C[C@H](OC(=O)[C@H](O)[C@@H](NC(=O)c4ccccc4)c4ccccc4)C(C)=C1C3(C)C)[C@]1(OC(C)=O)CO[C@@H]1C[C@@H]2O` [Paclitaxel]?
**A.** IC50 [3, 11]: 15 nM; IC50 ([4]; Mus musculus): 34 nM; RR: fold change between IC50 values from GM95 and B16 [4]: 2.2; IC50 [1, 6]: 6.9 nM; IC50 ([2]; Homo sapiens): 8.3 nM; RR (resistance ratio): fold change between IC50 values from HCT-116-Irv and HCT-116 [2]: 1.2

**Q.** With `CC[C@]1(O)C[C@@H]2CN(CCc3c([nH]c4ccccc34)[C@@](C(=O)OC)(c3cc4c(cc3OC)N(C)[C@H]3[C@@](O)(C(=O)OC)[C@H](OC(C)=O)[C@]5(CC)C=CCN6CC[C@]43[C@@H]65)C2)C1` [Vinblastine] as the compound, how does the IC50 [1, 6] read?
**A.** The IC50 was 0.32 nM.

**Q.** And the IC50 ([2]; Homo sapiens)?
**A.** The IC50 was 0.41 nM.

**Q.** What about the “RR (resistance ratio): fold change between IC50 values from HCT-116-Irv and HCT-116” value [2] of the same compound?
**A.** Its value is 1.3.

**Q.** Which results are given for `CCC1=C[C@@H]2CN(C1)Cc1c([nH]c3ccccc13)[C@@](C(=O)OC)(c1cc3c(cc1OC)N(C)[C@H]1[C@@](O)(C(=O)OC)[C@H](OC(C)=O)[C@]4(CC)C=CCN5CC[C@]31[C@@H]54)C2` [Vinorelbine]?
**A.** IC50 [1, 6]: 160 nM; IC50 ([2]; Homo sapiens): 190 nM; RR (resistance ratio): fold change between IC50 values from HCT-116-Irv and HCT-116 [2]: 1.1

**Q.** How did the FRET efficiency [5] turn out when Elisidepsin (peptide) was run?
**A.** The FRET efficiency was 60%.

**Q.** For Syringomycin E, which IC50 [3, 7] is on record?
**A.** The IC50 was 11000 nM.

**Q.** What about the IC50 [4, 8] of the same compound?
**A.** The IC50 was 9000 nM.

**Q.** And the “RR: fold change between IC50 values” value [4]?
**A.** Its value is -1.3.

**Q.** What about the IC50 [1, 9] of the same compound?
**A.** Its IC50 is 20000 nM.

**Q.** And the “RR (resistance ratio): fold change between IC50 values from HCT-116-Irv and HCT-116” value [2]?
**A.** The value was -1.4.

**Q.** And the IC50 [2, 10]?
**A.** The IC50 was 15000 nM.
